Laboratory results published in patent publication US8283352B2, “Solubilization preparation” (Dainippon Sumitomo Pharma Co., Ltd., priority 2005, dated 2012).
Counter-ions that a name gives are not always drawn.

Experiments:
Type in all cases: physicochemical
[1] = Solubility of lurasidone or a free form thereof in additives (Table 1), visual check; conditions: for solubility at 30 min: thermodynamic from solid
Experimental: Solid-type additives were studied in 10% aqueous solutions thereof and liquid-type ones were studied in 100% solutions thereof. Specifically, to 10% aqueous solution of solid-type additive or to 100% solution of liquid-type one was added lurasidone or a free form thereof so that a concentration thereof was 10 mg/mL, and the mixture was promoted to be dissolved by an operation such as stirring, heating or sonication. It was confirmed by visual check 30 minutes after the operation whether the mixture was perfectly dissolved. In case that the mixture was perfectly dissolved in a concentration of 10 mg/mL, another amount of lurasidone or a free form thereof was added to be evaluated.

[2] = Storage stability of 30 mg/mL solutions, residual ratio by reverse phase HPLC (Table 2); conditions: aqueous solutions using benzyl alcohol, propylene glycol, N,N-dimethylacetamide and lactic acid; one-month storage at 60° C. and 40° C.
Experimental: Solutions comprising lurasidone and a hydrochloride thereof in a concentration of 30 mg/mL were prepared in formulations in Table 2 to be stored under warming conditions (60° C. and 40° C.). After one-month storage, a residual ratio of principal agent was measured by using reverse phase HPLC. […] In other words, the present invention can provide a solution-type preparation with high stability wherein lurasidone and a free form thereof are solubilized at high concentrations.
Column: YMC-Pack AM-312 (5 μm, 6.0 mmφ×150 mm, manufactured by YMC Co., Ltd.)
Detector: ultraviolet absorptiometer (measured wavelength: 230 nm)
Column temperature: constant temperature around 25° C.
Solution A: 0.025% aqueous trifluoroacetic acid solution/acetonitrile mixture (4:1)
Solution B: 0.025% trifluoroacetic acid in acetonitrile solution

Solubility in water = test: Solubility in water

**Q.** Which results are given for `O=C1[C@@H]2[C@H]3CC[C@H](C3)[C@@H]2C(=O)N1C[C@@H]1CCCC[C@H]1CN1CCN(c2nsc3ccccc23)CC1` [A free form of lurasidone, N-[4-[4-(1,2-benzisothiazol-3-yl)-1-piperazinyl]-(2R,3R)-2,3-tetramethylene-butyl]-(1′R,2′S,3′R,4′S)-2,3-bicyclo[2,2,1]heptane-dicarboxyimide]?
**A.** Solubility ([1]; additive No. 21: Squalane): <10000 µg/mL; Solubility ([1]; additive No. 22: Medium-chain triglyceride): <10000 µg/mL; Solubility ([1]; additive No. 23: Benzyl benzoate): <10000 µg/mL; Solubility ([1]; additive No. 24: Anhydrous ethanol): <10000 µg/mL; Solubility ([1]; additive No. 25: Sorbitan sesquioleate): <10000 µg/mL; Solubility ([1]; additive No. 26: 1,3-Butanediol): <10000 µg/mL; Solubility ([1]; additive No. 27: Dipropylene glycol): <10000 µg/mL; Solubility ([1]; additive No. 28: Triethyleneglycol): <10000 µg/mL; Solubility ([1]; additive No. 29: Isopropyl alcohol): <10000 µg/mL; Solubility ([1]; additive No. 32: Isopropyl myristate): <10000 µg/mL; Solubility ([1]; additive No. 34: Monoethanolamine): <10000 µg/mL; Solubility ([1]; additive No. 35: Diethanolamine): <10000 µg/mL; Solubility ([1]; additive No. 36: Triethanolamine): <10000 µg/mL; Solubility ([1]; additive No. 37: Liquid paraffin): <10000 µg/mL; Solubility ([1]; additive No. 38: Toluene): >50000 µg/mL; Solubility ([1]; additive No. 41: N-Methyl-2-pyrrolidone): >50000 µg/mL; Solubility ([1]; additive No. 42: Glycol salicylate): <10000 µg/mL; Solubility ([1]; additive No. 44: Triacetin): <10000 µg/mL; Solubility ([1]; additive No. 46: Sesame oil): <10000 µg/mL; Solubility ([1]; additive No. 47: Castor oil): <10000 µg/mL; Solubility ([1]; additive No. 49: Arachis oil): <10000 µg/mL; Solubility ([1]; additive No. 50: Camellia oil): <10000 µg/mL; Solubility ([1]; additive No. 51: Soybean oil): <10000 µg/mL; Solubility ([1]; additive No. 52: Olive oil): <10000 µg/mL

**Q.** For `O=C1[C@@H]2[C@H]3CC[C@H](C3)[C@@H]2C(=O)N1C[C@@H]1CCCC[C@H]1CN1CCN(c2nsc3ccccc23)CC1` [Lurasidone, N-[4-[4-(1,2-benzisothiazol-3-yl)-1-piperazinyl]-(2R,3R)-2,3-tetramethylene-butyl]-(1′R,2′S,3′R,4′S)-2,3-bicyclo[2,2,1]heptanedicarboxyimide hydrochloride], which “stability in aqueous solutions (in words)” value [2] is on record?
**A.** stable

**Q.** And the solubility at 30 min ([1]; aqueous buffer, additive No. 8: Sodium hydrogen carbonate)?
**A.** < 10000 µg/mL

**Q.** And the solubility at 30 min ([1]; aqueous with cosolvent or surfactant or cyclodextrin, additive No. 1: Citric acid)?
**A.** < 10000 µg/mL

**Q.** And the solubility at 30 min ([1]; aqueous with cosolvent or surfactant or cyclodextrin, additive No. 2: Sodium citrate)?
**A.** < 10000 µg/mL

**Q.** And the solubility at 30 min ([1]; aqueous with cosolvent or surfactant or cyclodextrin, additive No. 3: L-Aspartic acid)?
**A.** < 10000 µg/mL

**Q.** What about the solubility at 30 min ([1]; aqueous with cosolvent or surfactant or cyclodextrin, additive No. 4: L-Arginine) of the same compound?
**A.** < 10000 µg/mL

**Q.** And the solubility at 30 min ([1]; aqueous with cosolvent or surfactant or cyclodextrin, additive No. 5: Soy lecithin)?
**A.** < 10000 µg/mL

**Q.** What about the solubility at 30 min ([1]; aqueous with cosolvent or surfactant or cyclodextrin, additive No. 6: Polysorbate 80) of the same compound?
**A.** < 10000 µg/mL

**Q.** What about the solubility at 30 min ([1]; aqueous with cosolvent or surfactant or cyclodextrin, additive No. 7: D-Mannitol) of the same compound?
**A.** < 10000 µg/mL

**Q.** What about the solubility at 30 min ([1]; aqueous with cosolvent or surfactant or cyclodextrin, additive No. 9: β-Cyclodextrin) of the same compound?
**A.** < 10000 µg/mL

**Q.** And the solubility at 30 min ([1]; aqueous with cosolvent or surfactant or cyclodextrin, additive No. 10: Maleic acid)?
**A.** < 10000 µg/mL

**Q.** And the solubility at 30 min ([1]; aqueous with cosolvent or surfactant or cyclodextrin, additive No. 12: Calcium bromide)?
**A.** < 10000 µg/mL

**Q.** What about the solubility at 30 min ([1]; aqueous with cosolvent or surfactant or cyclodextrin, additive No. 13: Ethylene diamine hydrochloride) of the same compound?
**A.** < 10000 µg/mL

**Q.** And the solubility at 30 min ([1]; aqueous with cosolvent or surfactant or cyclodextrin, additive No. 14: Tris)?
**A.** < 10000 µg/mL

**Q.** What about the solubility at 30 min ([1]; aqueous with cosolvent or surfactant or cyclodextrin, additive No. 16: Nicotinic amide) of the same compound?
**A.** < 10000 µg/mL

**Q.** And the solubility at 30 min ([1]; aqueous with cosolvent or surfactant or cyclodextrin, additive No. 17: Capric acid)?
**A.** < 10000 µg/mL

**Q.** And the solubility at 30 min ([1]; oil or lipid, additive No. 11: Ethyl oleate)?
**A.** < 10000 µg/mL

**Q.** And the solubility at 30 min ([1]; oil or lipid, additive No. 21: Squalane)?
**A.** < 10000 µg/mL

**Q.** And the solubility at 30 min ([1]; oil or lipid, additive No. 22: Medium-chain triglyceride)?
**A.** < 10000 µg/mL

**Q.** What about the solubility at 30 min ([1]; oil or lipid, additive No. 46: Sesame oil) of the same compound?
**A.** 1000 to 10000 µg/mL

**Q.** What about the solubility at 30 min ([1]; oil or lipid, additive No. 47: Castor oil) of the same compound?
**A.** 1000 to 10000 µg/mL

**Q.** And the solubility at 30 min ([1]; oil or lipid, additive No. 49: Arachis oil)?
**A.** 1000 to 10000 µg/mL

**Q.** And the solubility at 30 min ([1]; oil or lipid, additive No. 50: Camellia oil)?
**A.** 1000 to 10000 µg/mL

**Q.** What about the solubility at 30 min ([1]; oil or lipid, additive No. 51: Soybean oil) of the same compound?
**A.** 1000 to 10000 µg/mL

**Q.** What about the solubility at 30 min ([1]; oil or lipid, additive No. 52: Olive oil) of the same compound?
**A.** < 1000 µg/mL

**Q.** And the solubility at 30 min ([1]; organic solvent or mixture, additive No. 15: Polyethylene glycol 400)?
**A.** < 10000 µg/mL

**Q.** What about the solubility at 30 min ([1]; organic solvent or mixture, additive No. 18: Concentrated glycerin) of the same compound?
**A.** < 10000 µg/mL

**Q.** And the solubility at 30 min ([1]; organic solvent or mixture, additive No. 19: Propylene glycol)?
**A.** 30000 to 100000 µg/mL

**Q.** What about the solubility at 30 min ([1]; organic solvent or mixture, additive No. 20: Lactic acid) of the same compound?
**A.** > 100000 µg/mL

**Q.** And the solubility at 30 min ([1]; organic solvent or mixture, additive No. 30: Benzyl alcohol)?
**A.** > 200000 µg/mL

**Q.** And the solubility in water (Solubility in water)?
**A.** less than several
